Test results published in EP4813993A1, “COMPOUND, PREPARATION METHOD THEREFOR, AND USE THEREOF” (Sichuan Kelun Pharmaceutical Research Institute Co., Ltd., priority 2023, dated 2025).
pIC50: −log10 of the molar value.

What was measured:
Nav1.8 channels = biological target: T1, Nav1.8 channels (Homo sapiens, UniProt Q9Y5Y9); experiment: Manual patch-clamp, current of stably overexpressed Nav1.8 channels (resting state voltage program); type: cell-based; details: for inhibition at 0.001 µM: concentration of 1 nM, read-out: Inhibition rate %
T1 construct: expressed in transfected cells
Method in brief: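 Whole-cell manual patch clamp on cells stably overexpressing Nav1.8, held at -120 mV and stepped to 0 mV for 50 ms every 20 s (resting-state protocol). Compounds were perfused in ascending concentrations, each for 5 min or until stable; block of peak current was calculated at steady state.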

[1] = Pharmacokinetic study in ICR mice; type: in vivo; details: mouse
Experimental: Experimental Example 3: Pharmacokinetic study of compounds in ICR mice
(§1) Experimental animals: ICR mice, male, 6-8 weeks old.
(§2) Compound preparation: 5% (final preparation volume) of DMSO was added to dissolve the test compound, and then 10% (final preparation volume) of Cremophor EL and 85% Saline were sequentially added.
The injection group was given free access to food and water. The oral group was fasted overnight (> 12 h) with free access to water, and was fed 4 h after administration. Blood samples were collected from the jugular vein of ICR mice at the following time points: 5 min, 15 min, 0.5 h, 1 h, 2 h, 4 h, 8 h, and 24 h after injection administration; 15 min, 0.5 h, 1 h, 2 h, 4 h, 6 h, 8 h, and 24 h after oral administration. The collected blood samples were anticoagulated, placed in an ice bath, and then centrifuged for 5 min to separate plasma. The plasma was stored at -70 °C for analysis.
Sample test: The concentrations of the designated compound drugs in plasma were determined by the LC-MS/MS method; the main pharmacokinetic parameters were calculated using the Winnolin 8.3 non-compartmental model. Pharmacokinetic test results of some compounds of the present disclosure in ICR mice

incision pain model [2] = experiment: Incision pain model in ICR mice, Von Frey test; type: in vivo; details: Mean + SEM, n = 10; for PWT 50% value (g) Post-surgery, Preadministration / PWT 50% value (g) Pre-surgery: 50 mg/kg group; for PWT 50% value (g) Post-surgery, Preadministration: baseline before administration; for PWT 50% value (g) Pre-surgery: baseline before surgery; for PWT 50% value (g) 0.5 h / PWT 50% value (g) 2 h / PWT 50% value (g) 4 h: 50 mg/kg single dose; for PWT 50% value (g) 0.5 h: 0.5 h after administration; for PWT 50% value (g) 2 h: 2 h after administration; for PWT 50% value (g) 4 h: 4 h after administration
Experimental: Experimental Example 6: Pharmacodynamic effect study of compounds in incision pain model in ICR mice Experimental animals: ICR mice, male, 28-35 g.
as §2
A plantar incision pain model was established in mice via surgery before the administration and test. Mice were placed in an anesthesia induction chamber and given 3%-4% isoflurane for anesthesia induction. After the anesthesia induction, a breathing mask was applied, and the isoflurane concentration was adjusted to 1%-2% to prevent the mice from suffering pain during the surgery. Each mouse was placed in a supine position, and the surgical site was disinfected with alcohol and iodophor. Under sterile conditions, a 0.5 cm longitudinal incision was made on the left hind paw surface, 0.2 cm away from the heel, extending toward the toes. The skin and fascia were incised; the plantar muscle was separated, slightly lifted, and longitudinally incised. The skin was then sutured with 5-0 sutures and disinfected.
2. Administration and test
The Von Frey test was performed once before the surgery. On the second day after animal modeling, the test was repeated, and animals meeting the baseline requirements were selected for enrollment. The animals were randomly grouped based on the 50% PWT values, with 10 animals per group. Administration was performed under a double-blind test protocol. The 50% PWT of the animals was measured separately before administration (baseline) and at 0.5 h, 2 h, and 4 h after administration, and a single dose was administered. The model control group was given normal saline, while the compound groups were given the compounds according to the administration doses in the table below.

incision pain model [3] = experiment: Incision pain model in ICR mice, Von Frey test; type: in vivo; details: 50 mg/kg single dose, Mean + SEM, n = 10
[4] = Tissue distribution study (dorsal root ganglia) in ICR mice; type: in vivo; details: male, mouse, oral administration 20 mg/kg
Experimental: Experimental Example 4: Tissue distribution study of compounds in ICR mice
as §1, §2
(§3) Experimental design: The test compounds were administered to ICR mice as a single dose via oral administration (20 mg/kg; n = 3, 3 time points). Blood samples were collected at 0.25 h, 2 h, and 12 h after oral administration, followed by sacrifice of the animals. Dorsal root ganglia (DRG) were collected, rinsed with ice-cold normal saline to remove residual blood, blotted dry with absorbent paper, and stored at -70 °C for analysis.
Sample test: The concentrations of the compound drugs in dorsal root ganglia were determined by the LC-MS/MS method.

[5] = system: acetic acid writhing model; experiment: Mouse acetic acid writhing model; type: in vivo, ICR mice
Experimental: Experimental Example 11: Pharmacodynamic effect study of compounds in mouse acetic acid writhing model
Experimental animals: ICR mice, male, 20-24 g.
Compound preparation: 5% (final preparation volume) of DMSO was added to dissolve the test compound, and then 10% (final preparation volume) of Cremophor EL and 85% Saline were sequentially added; an appropriate amount of Etoricoxib was weighed, 5% (final preparation volume) of DMSO was added to dissolve the test compound, and then 5% (final preparation volume) of HS-15 and 90% Saline were sequentially added.
• 1. The mice were randomly grouped based on the body weight for model establishment, with 10 animals per group. A 0.8% (v/v) acetic acid solution was intraperitoneally injected at an injection volume of 10 mL/kg. • 2. Administration and test
Administration was performed 60 min before modeling. After the acetic acid solution was injected, the number of writhing responses in mice was observed. […] The number of writhing responses was observed and recorded during two intervals: 0-15 min and 15-30 min, with a total observation duration of 30 min. Inhibition rate = (number of writhing responses in control group - number of writhing responses in administration group)/number of writhing responses in control group × 100%. The model control group was given normal saline, the positive control group 1 was given etoricoxib at 20 mg/kg, the positive control group 2 was given VX-548 at 50 mg/kg, and the remaining groups were given the compounds of the present disclosure according to the administration doses in the table below.

[6] = Tissue distribution study (dorsal root ganglia) in SD rats; type: in vivo; details: male, rat, oral administration 10 mg/kg
Experimental: Experimental Example 5: Tissue distribution study of compounds in SD rats
Experimental animals: SD rats, male, 6-8 weeks old.
as §2
as §3, with “SD rats” for “ICR mice”, “(10” for “(20”, “0.5” for “0.25”, “6” for “12”, “ganglia” for “ganglia (DRG)”
Sample test: The concentrations of the designated compound drugs in plasma and tissues were determined by the LC-MS/MS method.

[7] = male, plasma, Oral administration, 10 mg/kg
[8] = male, plasma, iv, Injection (i.v.), 2 mg/kg

T1 sequence (Q9Y5Y9 whole entry): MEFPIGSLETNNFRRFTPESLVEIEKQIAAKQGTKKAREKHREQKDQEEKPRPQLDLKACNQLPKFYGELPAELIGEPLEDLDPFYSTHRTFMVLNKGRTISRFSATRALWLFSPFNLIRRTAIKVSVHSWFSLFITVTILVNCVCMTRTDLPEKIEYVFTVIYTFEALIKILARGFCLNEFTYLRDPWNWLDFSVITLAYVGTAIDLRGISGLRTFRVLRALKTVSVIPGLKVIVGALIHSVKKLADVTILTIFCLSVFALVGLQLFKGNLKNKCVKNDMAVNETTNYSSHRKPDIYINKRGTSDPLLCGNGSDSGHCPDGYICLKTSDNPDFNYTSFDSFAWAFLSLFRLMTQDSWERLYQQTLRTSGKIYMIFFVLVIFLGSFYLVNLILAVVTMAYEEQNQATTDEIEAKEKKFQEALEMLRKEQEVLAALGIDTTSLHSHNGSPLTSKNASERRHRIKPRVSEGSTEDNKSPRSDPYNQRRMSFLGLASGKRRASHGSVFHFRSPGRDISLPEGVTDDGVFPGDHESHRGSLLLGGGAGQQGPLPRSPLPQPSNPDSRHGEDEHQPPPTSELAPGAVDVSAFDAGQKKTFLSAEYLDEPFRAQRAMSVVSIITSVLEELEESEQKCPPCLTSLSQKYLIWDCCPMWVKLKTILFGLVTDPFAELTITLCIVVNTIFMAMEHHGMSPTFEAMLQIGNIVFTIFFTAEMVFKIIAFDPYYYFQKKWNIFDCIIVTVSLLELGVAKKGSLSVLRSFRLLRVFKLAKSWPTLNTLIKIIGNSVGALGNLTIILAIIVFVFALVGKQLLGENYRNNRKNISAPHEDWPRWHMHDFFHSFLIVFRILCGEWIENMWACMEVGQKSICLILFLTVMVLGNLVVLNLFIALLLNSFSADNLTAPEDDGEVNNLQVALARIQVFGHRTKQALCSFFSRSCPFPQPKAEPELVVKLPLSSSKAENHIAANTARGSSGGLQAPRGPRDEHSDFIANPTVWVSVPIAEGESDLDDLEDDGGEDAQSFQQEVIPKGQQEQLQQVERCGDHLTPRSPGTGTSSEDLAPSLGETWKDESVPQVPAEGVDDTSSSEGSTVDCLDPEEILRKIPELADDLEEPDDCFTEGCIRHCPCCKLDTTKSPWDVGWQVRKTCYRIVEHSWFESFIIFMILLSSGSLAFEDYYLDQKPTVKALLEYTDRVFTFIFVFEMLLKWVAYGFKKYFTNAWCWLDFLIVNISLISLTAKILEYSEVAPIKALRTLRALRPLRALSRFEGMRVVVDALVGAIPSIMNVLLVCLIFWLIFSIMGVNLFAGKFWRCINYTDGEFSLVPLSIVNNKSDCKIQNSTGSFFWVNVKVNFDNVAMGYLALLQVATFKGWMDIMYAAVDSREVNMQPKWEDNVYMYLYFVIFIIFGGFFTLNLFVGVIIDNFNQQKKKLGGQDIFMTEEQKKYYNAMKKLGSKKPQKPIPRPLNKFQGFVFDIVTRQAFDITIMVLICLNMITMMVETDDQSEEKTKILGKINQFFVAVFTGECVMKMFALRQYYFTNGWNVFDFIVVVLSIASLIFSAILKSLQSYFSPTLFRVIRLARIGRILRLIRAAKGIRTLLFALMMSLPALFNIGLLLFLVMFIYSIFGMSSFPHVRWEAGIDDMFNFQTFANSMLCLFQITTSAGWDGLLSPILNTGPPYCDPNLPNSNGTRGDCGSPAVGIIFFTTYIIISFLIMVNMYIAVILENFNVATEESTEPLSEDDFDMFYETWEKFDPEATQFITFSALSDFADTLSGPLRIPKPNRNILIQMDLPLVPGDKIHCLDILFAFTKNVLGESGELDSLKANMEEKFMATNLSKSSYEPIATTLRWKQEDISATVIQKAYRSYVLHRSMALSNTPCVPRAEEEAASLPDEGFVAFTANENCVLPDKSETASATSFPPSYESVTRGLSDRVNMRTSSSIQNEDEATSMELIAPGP

Row | inhibition at 0.001 µM (Nav1.8 channels) | AUC(0-inf) [1, 7] | AUC(0-inf) [1, 8] | pIC50 (Nav1.8 channels) | AUC(0-inf) ([1]; in vivo, Oral administration, 10 mg/kg) | AUC(0-inf) ([1]; in vivo, iv, Injection (i.v.), 2 mg/kg) | concentration at 0.5 h ([6]; Time 0.5 h) | concentration at 2 h ([6]; Time 2 h) | concentration at 6 h ([6]; Time 6 h) | Structure (SMILES) | PWT 50% value (g) Post-surgery, Preadministration (incision pain model [2]) | PWT 50% value (g) Pre-surgery (incision pain model [2]) | PWT 50% value (g) 0.5 h (incision pain model [2]) | PWT 50% value (g) 2 h (incision pain model [2]) | PWT 50% value (g) 4 h (incision pain model [2]) | PWT 50% value (g) AUC0-8h (incision pain model [3]) | concentration at 0.25 h [4] | concentration at 2 h [4] | concentration at 12 h [4] | Number of writhing responses ([5]; ICR mice, Dose 50 mg/kg, 60 min before 0.8% acetic acid i.p., 30 min observation, Mean + SD, n = 10) | inhibition of the writhing effect compared with VX-548 ([5]; mouse acetic acid writhing model)
1 | 77.8% | 2580 ng·h/mL | 1400 ng·h/mL | – | – | – | – | – | – | COc1c([C@@H]2C[C@](C)(C(F)(F)F)S[C@H]2C(=O)Nc2ccn3nncc3c2)ccc(F)c1F [Compound 246-A, (2R,3S,5R)-3-(3,4-difluoro-2-methoxyphenyl)-5-methyl-N-((1,2,3)triazolo(1,5-a)pyridin-5-yl)-5-(trifluoromethyl)tetrahydrothiophene-2-carboxamide] | 0.24 ± 0.03 g | 1.4 ± 0.17 g | 0.32 ± 0.12 g | 0.33 ± 0.16 g | 0.4 ± 0.27 g | 2.53 ± 0.82 g·h | – | – | – | – | –
2 | – | – | – | – | 8130 ng·h/mL | 2030 ng·h/mL | – | – | – | COc1c([C@@H]2C[C@](C)(C(F)(F)F)S[C@H]2C(=O)Nc2ccc3c(c2)S(=O)(=O)NC3)ccc(F)c1F [Compound a-37-A, (2R,3S,5R)-3-(3,4-difluoro-2-methoxyphenyl)-N-(1,1-dioxide-2,3-dihydrobenzo[d]isothiazol-6-yl)-5-methyl-5-(trifluoromethyl)tetrahydrothiophene-2-carboxamide] | 0.24 ± 0.03 g | 1.43 ± 0.33 g | 0.33 ± 0.12 g | 0.55 ± 0.18 g | 0.32 ± 0.1 g | 2.71 ± 0.39 g·h | – | – | – | – | –
3 | – | 10200 ng·h/mL | 2090 ng·h/mL | 9.82 | – | – | 115 ng/g | 768 ng/g | 557 ng/g | COc1c([C@@H]2C[C@](C)(C(F)(F)F)SC2C(=O)Nc2ccnc([N+](=O)[O-])c2)ccc(F)c1F (stereo in doubt) [a-7-A, (2S,3S,5R)-3-(3,4-difluoro-2-methoxyphenyl)-5-methyl-N-(2-nitropyridin-4-yl)-5-(trifluoromethyl)tetrahydrothiophene-2-carboxamide] | 0.27 ± 0.13 g | 1.43 ± 0.43 g | 0.47 ± 0.16 g | 0.72 ± 0.35 g | 0.47 ± 0.25 g | 3.62 ± 1.28 g·h | – | – | – | – | –
4 | 94.1% | 34100 ng·h/mL | 9490 ng·h/mL | – | – | – | – | – | – | COc1c([C@@H]2C[C@](C)(C(F)(F)F)S[C@H]2C(=O)Nc2ccc(F)c(S(N)(=O)=O)c2)ccc(F)c1F [Compound 233-A, (2R,3S,5R)-3-(3,4-difluoro-2-methoxyphenyl)-N-(4-fluoro-3-sulfamoylphenyl)-5-methyl-5-(trifluoromethyl)tetrahydrothiophene-2-carboxamide] | 0.22 ± 0.02 g | 1.54 ± 0.4 g | 0.42 ± 0.34 g | 0.62 ± 0.32 g | 0.41 ± 0.21 g | 3.21 ± 1.35 g·h | 400 ng/g | 2850 ng/g | 489 ng/g | – | –
5 | – | – | – | 10.40 | – | – | – | – | – | COc1c([C@@H]2C[C@](C)(C(F)(F)F)S[C@H]2C(=O)Nc2ccnc(NC#N)c2)ccc(F)c1F [a-34-A, (2R,3S,5R)-N-(2-cyanoaminopyridin-4-yl)-3-(3,4-difluoro-2-methoxyphenyl)-5-methyl-5-(trifluoromethyl)tetrahydrothiophene-2-carboxamide] | 0.24 ± 0.03 g | 1.41 ± 0.33 g | 0.32 ± 0.15 g | 0.51 ± 0.15 g | 0.35 ± 0.16 g | 2.81 ± 0.57 g·h | – | – | – | – | –

Row | Structure (SMILES) | inhibition at 0.001 µM (Nav1.8 channels) | AUC(0-inf) [1, 7] | AUC(0-inf) [1, 8] | pIC50 (Nav1.8 channels) | AUC(0-inf) ([1]; in vivo, Oral administration, 10 mg/kg) | AUC(0-inf) ([1]; in vivo, iv, Injection (i.v.), 2 mg/kg) | concentration at 0.5 h ([6]; Time 0.5 h) | concentration at 2 h ([6]; Time 2 h) | concentration at 6 h ([6]; Time 6 h) | PWT 50% value (g) Post-surgery, Preadministration (incision pain model [2]) | PWT 50% value (g) Pre-surgery (incision pain model [2]) | PWT 50% value (g) 0.5 h (incision pain model [2]) | PWT 50% value (g) 2 h (incision pain model [2]) | PWT 50% value (g) 4 h (incision pain model [2]) | PWT 50% value (g) AUC0-8h (incision pain model [3]) | concentration at 0.25 h [4] | concentration at 2 h [4] | concentration at 12 h [4] | Number of writhing responses ([5]; ICR mice, Dose 50 mg/kg, 60 min before 0.8% acetic acid i.p., 30 min observation, Mean + SD, n = 10) | inhibition of the writhing effect compared with VX-548 ([5]; mouse acetic acid writhing model)
6 | COc1c([C@@H]2C[C@](C)(C(F)(F)F)S[C@H]2C(=O)Nc2ccnc(N=[N+]=[N-])c2)ccc(F)c1F [a-20-A, (2R,3S,5R)-N-(2-azidopyridin-4-yl)-3-(3,4-difluoro-2-methoxyphenyl)-5-methyl-5-(trifluoromethyl)tetrahydrothiophene-2-carboxamide] | – | 15400 ng·h/mL | 1990 ng·h/mL | 12.00 | – | – | – | – | – | 0.29 ± 0.09 g | 1.14 ± 0.21 g | 0.39 ± 0.14 g | 0.49 ± 0.18 g | 0.57 ± 0.22 g | 3.48 ± 0.82 g·h | 1040 ng/g | 5900 ng/g | 1910 ng/g | 17 ± 11 | better than VX-548
